Source: EP4745118A1, “HYDROXAMIC ACID COMPOUND OR PHARMACEUTICALLY ACCEPTABLE SALT THEREOF, AND USE THEREOF AND PREPARATION METHOD THEREFOR” (priority 2023, dated 2025)

Columns and labels:
Enterobacter aerogenes = assay: In vitro antibacterial activity, agar dilution method (MIC); format: cell-based; details: Enterobacter aerogenes ATCC 13048; agar dilution, 35°C, 18 hours
Method: (§1) According to the relevant operating procedures of the Clinical Laboratory Standards Institute (CLSI) in the United States, an antimicrobial susceptibility testing was conducted using the agar dilution method. […]. The agar was allowed to solidify and set aside for later use.
(§2) The test bacteria were propagated in broth and adjusted to a turbidity of 0.5 McFarland (approximately 1-2 × 10^8 CFU/mL) using a turbidimeter before inoculation. The 0.5 McFarland bacterial solution was then diluted 10-fold in broth (approximately 1-2 × 10^7 CFU/mL). A multipoint inoculator was used to inoculate the above bacterial solution onto a series of plates containing different concentrations of drugs (with an inoculation amount of approximately 10^4 CFU per inoculation site). After incubation at a constant temperature of 35°C for 18 hours, results were observed. The minimum concentration of drugs contained in sterile growth plates was determined as the Minimal Inhibitory Concentration (MIC).

Proteus vulgaris = assay: as above; format: cell-based; details: Proteus vulgaris ATCC 29905; agar dilution, 35°C, 18 hours
Method: as §1, §2

Klebsiella pneumoniae = assay: as above; format: cell-based; details: agar dilution, 35°C, 18 hours
Method: as §1, §2

Escherichia coli = assay: as above; format: cell-based; details: agar dilution, 35°C, 18 hours
Method: as §1, §2

Pseudomonas aeruginosa = assay: as above; format: cell-based; details: Pseudomonas aeruginosa PAO1; agar dilution, 35°C, 18 hours
Method: as §1, §2

Pantoea agglomerans = assay: as above; format: cell-based; details: Pantoea agglomerans ATCC 27993; agar dilution, 35°C, 18 hours
Method: as §1, §2

Proteus mirabilis = assay: as above; format: cell-based; details: Proteus mirabilis ATCC 49565; agar dilution, 35°C, 18 hours
Method: as §1, §2

Citrobacter freundii = assay: as above; format: cell-based; details: Citrobacter freundii ATCC 43864; agar dilution, 35°C, 18 hours
Method: as §1, §2

Serratia marcescens = assay: as above; format: cell-based; details: Serratia marcescens ATCC 21074; agar dilution, 35°C, 18 hours
Method: as §1, §2

Shigella flexneri = assay: as above; format: cell-based; details: Shigella flexneri ATCC 12022, 35°C, 18 hours
Method: According to the relevant operating procedures of the Clinical Laboratory Standards Institute (CLSI) in the United States, an antimicrobial susceptibility testing was conducted using the agar dilution method. A 1920 µg/mL stock solution was serially diluted twofold with sterile water to obtain dilutions of 960, 480, 240, 120, 60, 30, 15, 7.5, 3.75, 1.88, 0.94, 0.47 µg/mL, and 1 mL of the dilution was taken respectively from the dilutions with different concentrations and added to a Petri dish, to which 14 mL of melted MH agar medium was added and mixed thoroughly, and the final concentration of the drug in the petri dish is 128, 64, 32, 16, 8, 4, 2, 1, 0.5, 0.25, 0.12, 0.06, and 0.03 µ g/mL, respectively. The agar was allowed to solidify and set aside for later use.
as §2

[1] = system: Escherichia coli ATCC BAA2469 (CRE, NDM-1-producing); assay: In vivo antibacterial activity, intraperitoneal infection in mice (survival over 7 days); details: for Animal survival rate / Number of surviving animals: mice, one intravenous administration 1 hour post-infection, 7 days; for Number of surviving animals: 5 animals per group
Method: Mice were randomly grouped based on body weight, with 5 mice in each group, regardless of gender. The infectious bacteria was Escherichia coli ATCC BAA2469 (CRE, NDM-1-producing). The test bacterial solution was diluted with 5% high-activity dry yeast. Mice received intraperitoneal injection of 0.5 mL of 100% minimum lethal dose (100% MLD) bacterial solution. One intravenous administration was given at 1 hour post-infection at a dose volume of 10 mL/kg. Animal survival numbers were observed over 7 days, and survival rates were calculated.

Enterobacter cloacae = assay: In vitro antibacterial activity, agar dilution method (MIC); format: cell-based; details: Enterobacter cloacae CDC1000654 (NDM-1-producing); agar dilution, 35°C, 18 hours
Method: According to the relevant operating procedures of the Clinical Laboratory Standards Institute (CLSI) in the United States, an antimicrobial susceptibility testing was conducted using the agar dilution method. […] The agar was allowed to solidify and set aside for later use.
as §2

## Colistin
Enterobacter aerogenes
  MIC: 0.5 µg/mL
Proteus vulgaris
  MIC: >128 µg/mL
Klebsiella pneumoniae; Klebsiella pneumoniae 09-20 (mcr-1)
  MIC: 16 µg/mL
Klebsiella pneumoniae; Klebsiella pneumoniae 17-R27 (CRE)
  MIC: 16 µg/mL
Klebsiella pneumoniae; Klebsiella pneumoniae 18-8 (ESBLs-producing)
  MIC: 0.5 µg/mL
Klebsiella pneumoniae; Klebsiella pneumoniae ATCC 700603 (ESBLs-producing)
  MIC: 0.5 µg/mL
Klebsiella pneumoniae; Klebsiella pneumoniae ATCC BAA-2146 (CRE, NDM-1-producing)
  MIC: 1 µg/mL
Escherichia coli; Escherichia coli 13-43 (mcr-1)
  MIC: 16 µg/mL
Escherichia coli; Escherichia coli 17-R28 (CRE, NDM-1-producing)
  MIC: 0.5 µg/mL
Escherichia coli; Escherichia coli ATCC 2469 (CRE, NDM-1-producing)
  MIC: 0.5 µg/mL
Escherichia coli; Escherichia coli ATCC 35218 (ESBLs-producing)
  MIC: 0.5 µg/mL
Pseudomonas aeruginosa
  MIC: 2 µg/mL
Pantoea agglomerans
  MIC: 0.5 µg/mL
Proteus mirabilis
  MIC: >128 µg/mL
Citrobacter freundii
  MIC: 0.5 µg/mL
Serratia marcescens
  MIC: >128 µg/mL
Shigella flexneri
  MIC: 0.5 µg/mL
[1]; mice with intraperitoneal infection by Escherichia coli ATCC BAA2469, intravenous
  effective dose of in vivo antibacterial activity: below 1.5 mg/kg
[1]; dose 0.35 mg/kg
  Animal survival rate: 0%
  Number of surviving animals: 0 individuals
[1]; dose 0.7 mg/kg
  Animal survival rate: 20%
  Number of surviving animals: 1 individuals
[1]; dose 1.4 mg/kg
  Animal survival rate: 80%
  Number of surviving animals: 4 individuals
Enterobacter cloacae
  MIC: 0.5 µg/mL
